Tests used:
[1] = test system: normal NK cells expanded with K562-aAPC; experiment: percent inhibition of viability; higher = more inhibition; settings: 72 h, IL-2 2.5 ng/mL
Method: (§1)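 Drug sensitivity and resistance testing on K562-aAPC-expanded normal NK cells: 5 concentrations (10-fold steps over a 10,000-fold range), 72 h at 37 °C, viability by CellTiter-Glo normalised to DMSO and benzethonium chloride controls; DSS from the fitted curve.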

[2] = test system: NKL (IL-2 2.5 ng/mL); experiment: drug sensitivity score (DSS) (DSS units); higher = more sensitive; extreme values may be limits of the assay; settings: 72 h
[3] = test system: KAI3 (IL-2 2.5 ng/mL); experiment: as above; settings: 72 h
[4] = test system: normal primary NK cells, pool 1 (3 donors) (IL-2 2.5 ng/mL); experiment: as above; settings: 72 h
[5] = test system: KHYG-1 (IL-2 2.5 ng/mL); experiment: as above; settings: 72 h
[6] = test system: normal primary NK cells, pool 3 (3 donors) (IL-2 2.5 ng/mL); experiment: as above; settings: 72 h
[7] = test system: NK-YS (IL-2 2.5 ng/mL); experiment: as above; settings: 72 h
[8] = test system: NK-92 (IL-2 2.5 ng/mL); experiment: as above; settings: 72 h
[9] = test system: YT (IL-2 2.5 ng/mL); experiment: as above; settings: 72 h
[10] = test system: SNK-6 (IL-2 2.5 ng/mL); experiment: as above; settings: 72 h
[11] = test system: normal primary NK cells, pool 1 (3 donors), resting (IL-2 0 ng/mL); experiment: as above; settings: 72 h
[12] = test system: DERL-7 (IL-2 2.5 ng/mL); experiment: as above; settings: 72 h
[13] = test system: normal primary NK cells, pool 2 (3 donors) (IL-2 2.5 ng/mL); experiment: as above; settings: 72 h
[14] = test system: IMC-1 (IL-2 20 ng/mL); experiment: as above; settings: 72 h
[15] = test system: normal NK cells expanded with K562-aAPC; experiment: as above; settings: 72 h; IL-2 2.5 ng/mL
Method: as §1

[16] = test system: NKL (IL-2 2.5 ng/mL); experiment: percent inhibition of viability; higher = more inhibition; settings: 72 h
[17] = test system: KAI3 (IL-2 2.5 ng/mL); experiment: as above; settings: 72 h
[18] = test system: normal primary NK cells, pool 1 (3 donors) (IL-2 2.5 ng/mL); experiment: as above; settings: 72 h
[19] = test system: KHYG-1 (IL-2 2.5 ng/mL); experiment: as above; settings: 72 h
[20] = test system: normal primary NK cells, pool 3 (3 donors) (IL-2 2.5 ng/mL); experiment: as above; settings: 72 h
[21] = test system: NK-YS (IL-2 2.5 ng/mL); experiment: as above; settings: 72 h
[22] = test system: NK-92 (IL-2 2.5 ng/mL); experiment: as above; settings: 72 h
[23] = test system: YT (IL-2 2.5 ng/mL); experiment: as above; settings: 72 h
[24] = test system: SNK-6 (IL-2 2.5 ng/mL); experiment: as above; settings: 72 h
[25] = test system: normal primary NK cells, pool 1 (3 donors), resting (IL-2 0 ng/mL); experiment: as above; settings: 72 h
[26] = test system: DERL-7 (IL-2 2.5 ng/mL); experiment: as above; settings: 72 h
[27] = test system: normal primary NK cells, pool 2 (3 donors) (IL-2 2.5 ng/mL); experiment: as above; settings: 72 h
[28] = test system: IMC-1 (IL-2 20 ng/mL); experiment: as above; settings: 72 h

CC(C)CC(=O)Nc1n[nH]c2c1CN(C(=O)C1CCN(C)CC1)C2(C)C (max concentration tested 10000 nM)
percent inhibition of viability ([1]; 1 nM): 1.26% | percent inhibition of viability ([1]; 10 nM): -0.23% | percent inhibition of viability ([1]; 100 nM): 9.16% | percent inhibition of viability ([1]; 1000 nM): 24.6% | percent inhibition of viability ([1]; 10000 nM): 84.3% | drug sensitivity score [2]: 9.5 | drug sensitivity score [3]: 9.47 | drug sensitivity score [4]: 5.49 | drug sensitivity score [5]: 16.4 | drug sensitivity score [6]: 3.98 | drug sensitivity score [7]: 14.8 | drug sensitivity score [8]: 5.51 | drug sensitivity score [9]: 10.6 | drug sensitivity score [10]: 6.8 | drug sensitivity score [11]: 3.02 | drug sensitivity score [12]: 13.1 | drug sensitivity score [13]: 7.11 | drug sensitivity score [14]: 21 | drug sensitivity score [15]: 7.91 | percent inhibition of viability ([16]; 1 nM): 9.47% | percent inhibition of viability ([16]; 10 nM): 12.1% | percent inhibition of viability ([16]; 100 nM): 8.64% | percent inhibition of viability ([16]; 1000 nM): 26% | percent inhibition of viability ([16]; 10000 nM): 105% | percent inhibition of viability ([17]; 1 nM): 0.22% | percent inhibition of viability ([17]; 10 nM): 5.67% | percent inhibition of viability ([17]; 100 nM): 10.2% | percent inhibition of viability ([17]; 1000 nM): 34.4% | percent inhibition of viability ([17]; 10000 nM): 97.8% | percent inhibition of viability ([18]; 1 nM): 5.81% | percent inhibition of viability ([18]; 10 nM): -11.3% | percent inhibition of viability ([18]; 100 nM): 1.49% | percent inhibition of viability ([18]; 1000 nM): 2.13% | percent inhibition of viability ([18]; 10000 nM): 93.6% | percent inhibition of viability ([19]; 1 nM): 3.79% | percent inhibition of viability ([19]; 10 nM): 5.48% | percent inhibition of viability ([19]; 100 nM): 13.2% | percent inhibition of viability ([19]; 1000 nM): 79.1% | percent inhibition of viability ([19]; 10000 nM): 104% | percent inhibition of viability ([20]; 1 nM): -6.64% | percent inhibition of viability ([20]; 10 nM): -10.6% | percent inhibition of viability ([20]; 100 nM): 9.27% | percent inhibition of viability ([20]; 1000 nM): 6.31% | percent inhibition of viability ([20]; 10000 nM): 54.5% | percent inhibition of viability ([21]; 1 nM): -0.22% | percent inhibition of viability ([21]; 10 nM): 5.26% | percent inhibition of viability ([21]; 100 nM): 25.9% | percent inhibition of viability ([21]; 1000 nM): 59.1% | percent inhibition of viability ([21]; 10000 nM): 103% | percent inhibition of viability ([22]; 1 nM): -3.46% | percent inhibition of viability ([22]; 10 nM): 8.8% | percent inhibition of viability ([22]; 100 nM): 18% | percent inhibition of viability ([22]; 1000 nM): 15.4% | percent inhibition of viability ([22]; 10000 nM): 52.1% | percent inhibition of viability ([23]; 1 nM): 4.62% | percent inhibition of viability ([23]; 10 nM): 5.8% | percent inhibition of viability ([23]; 100 nM): 7.48% | percent inhibition of viability ([23]; 1000 nM): 37.5% | percent inhibition of viability ([23]; 10000 nM): 104% | percent inhibition of viability ([24]; 1 nM): 1.24% | percent inhibition of viability ([24]; 10 nM): 13.9% | percent inhibition of viability ([24]; 100 nM): 17.6% | percent inhibition of viability ([24]; 1000 nM): 21.7% | percent inhibition of viability ([24]; 10000 nM): 77.7% | percent inhibition of viability ([25]; 1 nM): -13.4% | percent inhibition of viability ([25]; 10 nM): -45.2% | percent inhibition of viability ([25]; 100 nM): -20.7% | percent inhibition of viability ([25]; 1000 nM): -66.9% | percent inhibition of viability ([25]; 10000 nM): 85% | percent inhibition of viability ([26]; 1 nM): -3.18% | percent inhibition of viability ([26]; 10 nM): -3.13% | percent inhibition of viability ([26]; 100 nM): 19.6% | percent inhibition of viability ([26]; 1000 nM): 55.2% | percent inhibition of viability ([26]; 10000 nM): 100% | percent inhibition of viability ([27]; 1 nM): -7.33% | percent inhibition of viability ([27]; 10 nM): 3.3% | percent inhibition of viability ([27]; 100 nM): 10.1% | percent inhibition of viability ([27]; 1000 nM): 14.3% | percent inhibition of viability ([27]; 10000 nM): 85.4% | percent inhibition of viability ([28]; 1 nM): 3.15% | percent inhibition of viability ([28]; 10 nM): 9.36% | percent inhibition of viability ([28]; 100 nM): 18% | percent inhibition of viability ([28]; 1000 nM): 101% | percent inhibition of viability ([28]; 10000 nM): 101%

Cc1ccc(NC(=O)c2ccc(CN3CC[C@H](N(C)C)C3)c(C(F)(F)F)c2)cc1Nc1nccc(-c2cncnc2)n1 [Bafetinib] (max concentration tested 1000 nM)
percent inhibition of viability ([1]; 0.1 nM): -3.13% | percent inhibition of viability ([1]; 1 nM): -5.16% | percent inhibition of viability ([1]; 10 nM): -2.83% | percent inhibition of viability ([1]; 100 nM): 2.67% | percent inhibition of viability ([1]; 1000 nM): 30.9% | drug sensitivity score [2]: 4.77 | drug sensitivity score [3]: 3.8 | drug sensitivity score [4]: 0.1 | drug sensitivity score [5]: 1.5 | drug sensitivity score [6]: 0.06 | drug sensitivity score [7]: 0.42 | drug sensitivity score [8]: 2.35 | drug sensitivity score [9]: 0.72 | drug sensitivity score [10]: 0 | drug sensitivity score [11]: 0 | drug sensitivity score [12]: 0.06 | drug sensitivity score [13]: 0.12 | drug sensitivity score [14]: 0 | drug sensitivity score [15]: 1.77 | percent inhibition of viability ([16]; 0.1 nM): 5.49% | percent inhibition of viability ([16]; 1 nM): -2.75% | percent inhibition of viability ([16]; 10 nM): 4.28% | percent inhibition of viability ([16]; 100 nM): 18% | percent inhibition of viability ([16]; 1000 nM): 50.2% | percent inhibition of viability ([17]; 0.1 nM): 0.47% | percent inhibition of viability ([17]; 1 nM): 0.29% | percent inhibition of viability ([17]; 10 nM): 2.91% | percent inhibition of viability ([17]; 100 nM): 12% | percent inhibition of viability ([17]; 1000 nM): 41.7% | percent inhibition of viability ([18]; 0.1 nM): -1.48% | percent inhibition of viability ([18]; 1 nM): -8.42% | percent inhibition of viability ([18]; 10 nM): -2.74% | percent inhibition of viability ([18]; 100 nM): 1.21% | percent inhibition of viability ([18]; 1000 nM): 12% | percent inhibition of viability ([19]; 0.1 nM): -4.48% | percent inhibition of viability ([19]; 1 nM): -4.63% | percent inhibition of viability ([19]; 10 nM): 1.74% | percent inhibition of viability ([19]; 100 nM): 7.43% | percent inhibition of viability ([19]; 1000 nM): 22.3% | percent inhibition of viability ([20]; 0.1 nM): -3.5% | percent inhibition of viability ([20]; 1 nM): -5.78% | percent inhibition of viability ([20]; 10 nM): -5.64% | percent inhibition of viability ([20]; 100 nM): -5.35% | percent inhibition of viability ([20]; 1000 nM): 13.7% | percent inhibition of viability ([21]; 0.1 nM): -4.77% | percent inhibition of viability ([21]; 1 nM): -6.95% | percent inhibition of viability ([21]; 10 nM): -3.78% | percent inhibition of viability ([21]; 100 nM): -1.77% | percent inhibition of viability ([21]; 1000 nM): 18.9% | percent inhibition of viability ([22]; 0.1 nM): -11.6% | percent inhibition of viability ([22]; 1 nM): -4.05% | percent inhibition of viability ([22]; 10 nM): 0.45% | percent inhibition of viability ([22]; 100 nM): 9.61% | percent inhibition of viability ([22]; 1000 nM): 26.8% | percent inhibition of viability ([23]; 0.1 nM): -6.07% | percent inhibition of viability ([23]; 1 nM): -5.69% | percent inhibition of viability ([23]; 10 nM): -1.09% | percent inhibition of viability ([23]; 100 nM): 1.37% | percent inhibition of viability ([23]; 1000 nM): 19.6% | percent inhibition of viability ([24]; 0.1 nM): -21% | percent inhibition of viability ([24]; 1 nM): 16.9% | percent inhibition of viability ([24]; 10 nM): -16.6% | percent inhibition of viability ([24]; 100 nM): -25.9% | percent inhibition of viability ([24]; 1000 nM): -21.8% | percent inhibition of viability ([25]; 0.1 nM): -11.6% | percent inhibition of viability ([25]; 1 nM): -4.75% | percent inhibition of viability ([25]; 10 nM): 5.74% | percent inhibition of viability ([25]; 100 nM): -0.62% | percent inhibition of viability ([25]; 1000 nM): 2.62% | percent inhibition of viability ([26]; 0.1 nM): -14% | percent inhibition of viability ([26]; 1 nM): 2.29% | percent inhibition of viability ([26]; 10 nM): -3.89% | percent inhibition of viability ([26]; 100 nM): -8.4% | percent inhibition of viability ([26]; 1000 nM): 14.2% | percent inhibition of viability ([27]; 0.1 nM): -9.03% | percent inhibition of viability ([27]; 1 nM): -9.08% | percent inhibition of viability ([27]; 10 nM): -6.83% | percent inhibition of viability ([27]; 100 nM): 2.13% | percent inhibition of viability ([27]; 1000 nM): 11.8% | percent inhibition of viability ([28]; 0.1 nM): -6.49% | percent inhibition of viability ([28]; 1 nM): -4.43% | percent inhibition of viability ([28]; 10 nM): -0.85% | percent inhibition of viability ([28]; 100 nM): 0.31% | percent inhibition of viability ([28]; 1000 nM): 1.78%
